# Assay results as given in ChEMBL document CHEMBL5543097, “Synthesis and structure-activity relationships of novel 14-membered 2-fluoro ketolides with structural modification at the C11 position” (Eur J Med Chem, 2024).
# Legend:
# Moraxella catarrhalis [1] = test: Antibacterial activity against Moraxella catarrhalis BCA 19-31 assessed as inhibition of bacterial growth incubated for 24 hrs by CLSI based broth microdilution method; assay type: functional; conditions: BCA 19-31, 24 h
# Haemophilus influenzae [2] = test: Antibacterial activity against Haemophilus influenzae HIN 19-15 assessed as inhibition of bacterial growth incubated for 20 to 24 hrs by CLSI based broth microdilution method; assay type: functional; conditions: time 20-24 hrs
# Streptococcus pneumoniae [3] = test: Antibacterial activity against erythromycin-resistant Streptococcus pneumoniae SPN19-8 assessed as inhibition of visible bacterial growth incubated for 18 hrs by broth microdilution method; assay type: functional
# Streptococcus agalactiae [4] = test: Antibacterial activity against erythromycin-resistant Streptococcus agalactiae 19-8 assessed as inhibition of visible bacterial growth incubated for 18 hrs by broth microdilution method; assay type: functional
# [5] = tested on: Staphylococcus epidermidis; test: Antibacterial activity against erythromycin-resistant Staphylococcus epidermidis 19-9 assessed as inhibition of visible bacterial growth incubated for 18 hrs by broth microdilution method; assay type: functional
# [6] = tested on: Staphylococcus epidermidis; test: Antibacterial activity against erythromycin-resistant Staphylococcus epidermidis 19-5 assessed as inhibition of visible bacterial growth incubated for 18 hrs by broth microdilution method; assay type: functional
# Streptococcus agalactiae [7] = test: Antibacterial activity against erythromycin-resistant Streptococcus agalactiae 19-9 assessed as inhibition of visible bacterial growth incubated for 18 hrs by broth microdilution method; assay type: functional
# [8] = tested on: Staphylococcus epidermidis; test: Antibacterial activity against erythromycin-resistant Staphylococcus epidermidis 19-8 assessed as inhibition of visible bacterial growth incubated for 18 hrs by broth microdilution method; assay type: functional
# Haemophilus influenzae [9] = test: Antibacterial activity against Haemophilus influenzae HIN 19-18 assessed as inhibition of bacterial growth incubated for 20 to 24 hrs by CLSI based broth microdilution method; assay type: functional; conditions: HIN 19-18, time 20-24 hrs
# Streptococcus pneumoniae [10] = test: Antibacterial activity against erythromycin-resistant Streptococcus pneumoniae SPN19-13 assessed as inhibition of visible bacterial growth incubated for 18 hrs by broth microdilution method; assay type: functional
# Streptococcus pneumoniae [11] = test: Antibacterial activity against erythromycin-resistant Streptococcus pneumoniae SPN19-14 assessed as inhibition of visible bacterial growth incubated for 18 hrs by broth microdilution method; assay type: functional
# [12] = tested on: Staphylococcus epidermidis; test: Antibacterial activity against erythromycin-resistant Staphylococcus epidermidis 19-4 assessed as inhibition of visible bacterial growth incubated for 18 hrs by broth microdilution method; assay type: functional
# [13] = Cytotoxicity against mouse AML12 cells assessed as reduction in cell viability incubated for 48 hrs by MTT assay; assay type: toxicity, cell-based
# Haemophilus influenzae [14] = test: Antibacterial activity against Haemophilus influenzae HIN 20-18 assessed as inhibition of bacterial growth incubated for 20 to 24 hrs by CLSI based broth microdilution method; assay type: functional; conditions: time 20-24 hrs
# Moraxella catarrhalis [15] = test: Antibacterial activity against Moraxella catarrhalis BCA 19-5 assessed as inhibition of bacterial growth incubated for 24 hrs by CLSI based broth microdilution method; assay type: functional
# [16] = tested on: Staphylococcus epidermidis; test: Antibacterial activity against erythromycin-resistant Staphylococcus epidermidis 19-11 assessed as inhibition of visible bacterial growth incubated for 18 hrs by broth microdilution method; assay type: functional
# Streptococcus pyogenes = test: Antibacterial activity against erythromycin-resistant Streptococcus pyogenes ATCC 19615 assessed as inhibition of visible bacterial growth incubated for 18 hrs by broth microdilution method; assay type: functional
# Moraxella catarrhalis [17] = test: Antibacterial activity against Moraxella catarrhalis BCA 19-6 assessed as inhibition of bacterial growth incubated for 24 hrs by CLSI based broth microdilution method; assay type: functional; conditions: Moraxella catarrhalis, BCA 19-6, 24 h, read-out: MIC
# [18] = tested on: Staphylococcus epidermidis; test: Antibacterial activity against erythromycin-resistant Staphylococcus epidermidis 19-6 assessed as inhibition of visible bacterial growth incubated for 18 hrs by broth microdilution method; assay type: functional
# Streptococcus pneumoniae [19] = test: Potency index, ratio of telithromycin MIC to test compound MIC for antibacterial activity against Streptococcus pneumoniae SPN19-8 assessed as inhibition of visible bacterial growth incubated for 18 hrs by broth microdilution method; assay type: functional
# Streptococcus pneumoniae [20] = test: Potency index, ratio of telithromycin MIC to test compound MIC for antibacterial activity against Streptococcus pneumoniae SPN19-13 assessed as inhibition of visible bacterial growth incubated for 18 hrs by broth microdilution method; assay type: functional
# Streptococcus pneumoniae [21] = test: Potency index, ratio of telithromycin MIC to test compound MIC for antibacterial activity against Streptococcus pneumoniae SPN19-14 assessed as inhibition of visible bacterial growth incubated for 18 hrs by broth microdilution method; assay type: functional
# [22] = Moraxella catarrhalis, BCA 19-5, 24 h, read-out: MIC
Compound,MIC (Moraxella catarrhalis [1]),MIC (Haemophilus influenzae [2]),MIC (Streptococcus pneumoniae [3]),MIC (Streptococcus agalactiae [4]),MIC [5],MIC [6],MIC (Streptococcus agalactiae [7]),MIC [8],MIC (Haemophilus influenzae [9]),MIC (Streptococcus pneumoniae [10]),MIC (Streptococcus pneumoniae [11]),MIC [12],CC50 at 48 h [13],MIC (Haemophilus influenzae [14]),MIC (Moraxella catarrhalis [15]; [22]),MIC [16],MIC (Streptococcus pyogenes),MIC (Moraxella catarrhalis [17]),MIC [18],other results
CC[C@H]1OC(=O)[C@H](C)[C@@H](O[C@H]2C[C@@](C)(OC)[C@@H](O)[C@H](C)O2)[C@H](C)[C@@H](O[C@@H]2O[C@H](C)C[C@H](N(C)C)[C@H]2O)[C@](C)(OC)C[C@@H](C)C(=O)[C@H](C)[C@@H](O)[C@]1(C)O [CLARITHROMYCIN],0.125 µg/mL,4 µg/mL,> 64 µg/mL,0.06 µg/mL,16 µg/mL,0.25 µg/mL,64 µg/mL,> 64 µg/mL,8 µg/mL,64 µg/mL,0.5 µg/mL,> 64 µg/mL,> 100 µM,> 16 µg/mL,> 64 µg/mL,16 µg/mL,< 0.03 µg/mL,32 µg/mL,64 µg/mL,
CC[C@H]1OC(=O)[C@H](C)[C@@H](O[C@H]2C[C@@](C)(OC)[C@@H](O)[C@H](C)O2)[C@H](C)[C@@H](O[C@@H]2O[C@H](C)C[C@H](N(C)C)[C@H]2O)[C@](C)(O)C[C@@H](C)C(=O)[C@H](C)[C@@H](O)[C@]1(C)O [ERYTHROMYCIN],0.5 µg/mL,8 µg/mL,> 64 µg/mL,0.125 µg/mL,> 64 µg/mL,0.25 µg/mL,16 µg/mL,> 64 µg/mL,8 µg/mL,> 64 µg/mL,0.5 µg/mL,> 64 µg/mL,> 100 µM,> 16 µg/mL,> 64 µg/mL,64 µg/mL,< 0.03 µg/mL,64 µg/mL,32 µg/mL,
CC[C@H]1OC(=O)[C@@](C)(F)C(=O)[C@H](C)[C@@H](O[C@@H]2O[C@H](C)C[C@H](N(C)C)[C@H]2O)[C@](C)(OC)C[C@@H](C)C(=O)[C@H](C)[C@H]2N(CCCOC(=O)Nc3cccc(C)c3C)C(=O)O[C@]12C,0.125 µg/mL,8 µg/mL,0.125 µg/mL,,0.125 µg/mL,< 0.03 µg/mL,1 µg/mL,< 0.03 µg/mL,8 µg/mL,0.06 µg/mL,0.06 µg/mL,0.03 µg/mL,26 µM,16 µg/mL,0.125 µg/mL,0.03 µg/mL,< 0.03 µg/mL,0.125 µg/mL,0.03 µg/mL,
CC[C@H]1OC(=O)[C@@](C)(F)C(=O)[C@H](C)[C@@H](O[C@@H]2O[C@H](C)C[C@H](N(C)C)[C@H]2O)[C@](C)(OC)C[C@@H](C)C(=O)[C@H](C)[C@H]2N(CCCOC(=O)Nc3ccc(Cl)cc3)C(=O)O[C@]12C,11.1 µg/mL,8 µg/mL,0.25 µg/mL,,0.125 µg/mL,< 0.03 µg/mL,1 µg/mL,0.03 µg/mL,8 µg/mL,0.125 µg/mL,0.125 µg/mL,0.03 µg/mL,26 µM,16 µg/mL,9.12 µg/mL,< 0.03 µg/mL,< 0.03 µg/mL,0.25 µg/mL,< 0.03 µg/mL,
CC[C@H]1OC(=O)[C@@](C)(F)C(=O)[C@H](C)[C@@H](O[C@@H]2O[C@H](C)C[C@H](N(C)C)[C@H]2O)[C@](C)(OC)C[C@@H](C)C(=O)[C@H](C)[C@H]2N(CCCOC(=O)Nc3ccc(C)cc3)C(=O)O[C@]12C,,8 µg/mL,0.06 µg/mL,< 0.03 µg/mL,0.125 µg/mL,< 0.03 µg/mL,0.25 µg/mL,< 0.03 µg/mL,8 µg/mL,< 0.03 µg/mL,< 0.03 µg/mL,< 0.03 µg/mL,83.2 µM,,0.03 µg/mL,< 0.03 µg/mL,< 0.03 µg/mL,,< 0.03 µg/mL,Ratio (Streptococcus pneumoniae [19]): <4; Ratio (Streptococcus pneumoniae [20]): <4; MIC (Moraxella catarrhalis [15]; 24 h): <0.03 µg/mL; Ratio (Streptococcus pneumoniae [21]): <4
